In patent US20260015358A1, “BICYCLIC DERIVATIVES, COMPOSITIONS AND USES THEREOF” (Danatlas Pharmaceuticals Co., Ltd., priority 2023, published 2026):

Legend:
[1] = target: T1, WRN [UniPro: Q14191 (WRN_HUMAN), N500-C946] (Homo sapiens (Human), UniProt Q14191); experiment: WRN unwinding assay (FORKF DNA, fluorescence); type: biochemical; settings: Table 14
[2] = target: T1, WRN [UniPro: Q14191 (WRN_HUMAN), N500-C946]; experiment: WRN ATPase assay (ADP-Glo); type: biochemical; settings: WRN enzymatic activity assay

T1 sequence (Q14191 500-946): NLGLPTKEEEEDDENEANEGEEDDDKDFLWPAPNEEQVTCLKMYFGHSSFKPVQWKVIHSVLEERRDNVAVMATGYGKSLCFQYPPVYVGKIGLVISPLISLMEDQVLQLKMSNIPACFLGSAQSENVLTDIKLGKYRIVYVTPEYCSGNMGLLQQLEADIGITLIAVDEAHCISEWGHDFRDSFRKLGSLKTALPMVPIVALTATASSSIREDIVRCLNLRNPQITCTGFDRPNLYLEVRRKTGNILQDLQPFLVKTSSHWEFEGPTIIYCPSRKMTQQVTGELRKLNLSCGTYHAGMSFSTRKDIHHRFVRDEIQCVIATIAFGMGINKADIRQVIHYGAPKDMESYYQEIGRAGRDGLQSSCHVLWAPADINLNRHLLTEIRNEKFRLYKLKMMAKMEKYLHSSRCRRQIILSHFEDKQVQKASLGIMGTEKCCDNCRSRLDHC

Compound | IC50 [1] [nM] | IC50 [2] [nM]
CCc1c(N2CCN(C(=O)C(=O)Nc3cc(C)on3)CC2)c(=O)n2nc(N3CCOCC3)nc2n1CC(=O)Nc1ccc(C(F)(F)F)cc1Cl [Example 352, 2-(4-(4-(2-((2-Chloro-4-(trifluoromethyl)phenyl)amino)-2-oxoethyl)-5-ethyl-2-morpholino-7-oxo-4,7-dihydro-[1,2,4]triazolo[1,5-a]pyrimidin-6-yl)piperazin-1-yl)-N-(5-methylisoxazol-3-yl)-2-oxoacetamide] | 100 to 1000 | 100 to 1000
CCc1c(N2CCN(C(=O)C(=O)Nc3nc(C)co3)CC2)c(=O)n2nc(C3=CCOCC3)nc2n1CC(=O)Nc1ccc(C(F)(F)F)cc1Cl [Example 353, 2-(4-(4-(2-((2-Chloro-4-(trifluoromethyl)phenyl)amino)-2-oxoethyl)-2-(3,6-dihydro-2H-pyran-4-yl)-5-ethyl-7-oxo-4,7-dihydro-[1,2,4]triazolo[1,5-a]pyrimidin-6-yl)piperazin-1-yl)-N-(4-methyloxazol-2-yl)-2-oxoacetamide] | < 100 | < 100
CCc1c(N2CCN(C(=O)C(=O)Nc3ccno3)CC2)c(=O)n2nc(C3=CCOCC3)nc2n1CC(=O)Nc1ccc(C(F)(F)F)cc1Cl [Example 354, 2-(4-(4-(2-((2-Chloro-4-(trifluoromethyl)phenyl)amino)-2-oxoethyl)-2-(3,6-dihydro-2H-pyran-4-yl)-5-ethyl-7-oxo-4,7-dihydro-[1,2,4]triazolo[1,5-a]pyrimidin-6-yl)piperazin-1-yl)-N-(isoxazol-5-yl)-2-oxoacetamide] | < 100 | < 100
CCc1c(N2CCN(C(=O)C(=O)Nc3nc(C)co3)CC2)c(=O)n2nc(C3=CCOCC3)nc2n1CC(=O)Nc1ccc(C(F)(F)F)cc1F [Example 355, 2-(4-(2-(3,6-Dihydro-2H-pyran-4-yl)-5-ethyl-4-(2-((2-fluoro-4-(trifluoromethyl)phenyl)amino)-2-oxoethyl)-7-oxo-4,7-dihydro-[1,2,4]triazolo[1,5-a]pyrimidin-6-yl)piperazin-1-yl)-N-(4-methyloxazol-2-yl)-2-oxoacetamide] | < 100 | < 100
CCc1c(N2CCN(C(=O)C(=O)N3CCOCC3)CC2)c(=O)n2nc(C3=CCOCC3)nc2n1CC(=O)Nc1ccc(C(F)(F)F)cc1Cl [Example 356, N-(2-Chloro-4-(trifluoromethyl)phenyl)-2-(2-(3,6-dihydro-2H-pyran-4-yl)-5-ethyl-6-(4-(2-morpholino-2-oxoacetyl)piperazin-1-yl)-7-oxo-[1,2,4]triazolo[1,5-a]pyrimidin-4(7H)-yl)acetamide] | > 1000 | > 1000
CCc1c(N2CCN(C(=O)C(=O)NC3CCCC3)CC2)c(=O)n2nc(C3=CCOCC3)nc2n1CC(=O)Nc1ccc(C(F)(F)F)cc1Cl [Example 357, 2-(4-(4-(2-((2-Chloro-4-(trifluoromethyl)phenyl)amino)-2-oxoethyl)-2-(3,6-dihydro-2H-pyran-4-yl)-5-ethyl-7-oxo-4,7-dihydro-[1,2,4]triazolo[1,5-a]pyrimidin-6-yl)piperazin-1-yl)-N-cyclopentyl-2-oxoacetamide] | 100 to 1000 | 100 to 1000
CCc1c(N2CCN(C(=O)C(=O)N3CCCC3)CC2)c(=O)n2nc(C3=CCOCC3)nc2n1CC(=O)Nc1ccc(C(F)(F)F)cc1Cl [Example 358, N-(2-Chloro-4-(trifluoromethyl)phenyl)-2-(2-(3,6-dihydro-2H-pyran-4-yl)-5-ethyl-7-oxo-6-(4-(2-oxo-2-(pyrrolidin-1-yl)acetyl)piperazin-1-yl)-[1,2,4]triazolo[1,5-a]pyrimidin-4(7H)-yl)acetamide] | 100 to 1000 | 100 to 1000
CCc1c(N2CCN(C(=O)C(=O)NC3CC3)CC2)c(=O)n2nc(C3=CCOCC3)nc2n1CC(=O)Nc1ccc(C(F)(F)F)cc1Cl [Example 359, 2-(4-(4-(2-((2-Chloro-4-(trifluoromethyl)phenyl)amino)-2-oxoethyl)-2-(3,6-dihydro-2H-pyran-4-yl)-5-ethyl-7-oxo-4,7-dihydro-[1,2,4]triazolo[1,5-a]pyrimidin-6-yl)piperazin-1-yl)-N-cyclopropyl-2-oxoacetamide] | 100 to 1000 | 100 to 1000

Results, then the compound that gave them:

IC50 [1] [nM] | IC50 [2] [nM] | Compound
< 100 | < 100 | CCc1c(N2CCN(C(=O)CNC(=O)c3nc(C)cs3)CC2)c(=O)n2nc(C3=CCOCC3)nc2n1CC(=O)Nc1ccc(C(F)(F)F)cc1Cl [Example 346, N-(2-(4-(4-(2-((2-Chloro-4-(trifluoromethyl)phenyl)amino)-2-oxoethyl)-2-(3,6-dihydro-2H-pyran-4-yl)-5-ethyl-7-oxo-4,7-dihydro-[1,2,4]triazolo[1,5-a]pyrimidin-6-yl)piperazin-1-yl)-2-oxoethyl)-4-methylthiazole-2-carboxamide]
< 100 | < 100 | CCc1c(N2CCN(C(=O)C(=O)Nc3nc(C)cs3)CC2)c(=O)n2nc(C3=CCOCC3)nc2n1CC(=O)Nc1ccc(C(F)(F)F)cc1Cl [Example 347, 2-(4-(4-(2-((2-Chloro-4-(trifluoromethyl)phenyl)amino)-2-oxoethyl)-2-(3,6-dihydro-2H-pyran-4-yl)-5-ethyl-7-oxo-4,7-dihydro-[1,2,4]triazolo[1,5-a]pyrimidin-6-yl)piperazin-1-yl)-N-(4-methylthiazol-2-yl)-2-oxoacetamide]
< 100 | < 100 | CCc1c(N2CCN(C(=O)C(=O)Nc3cc(C)no3)CC2)c(=O)n2nc(C3=CCOCC3)nc2n1CC(=O)Nc1ccc(C(F)(F)F)cc1Cl [Example 348, 2-(4-(4-(2-((2-Chloro-4-(trifluoromethyl)phenyl)amino)-2-oxoethyl)-2-(3,6-dihydro-2H-pyran-4-yl)-5-ethyl-7-oxo-4,7-dihydro-[1,2,4]triazolo[1,5-a]pyrimidin-6-yl)piperazin-1-yl)-N-(3-methylisoxazol-5-yl)-2-oxoacetamide]
< 100 | < 100 | CCc1c(N2CCN(C(=O)C(=O)Nc3cncs3)CC2)c(=O)n2nc(C3=CCOCC3)nc2n1CC(=O)Nc1ccc(C(F)(F)F)cc1F [Example 349, 2-(4-(2-(3,6-Dihydro-2H-pyran-4-yl)-5-ethyl-4-(2-((2-fluoro-4-(trifluoromethyl)phenyl)amino)-2-oxoethyl)-7-oxo-4,7-dihydro-[1,2,4]triazolo[1,5-a]pyrimidin-6-yl)piperazin-1-yl)-2-oxo-N-(thiazol-5-yl)acetamide]
< 100 | < 100 | CCc1c(N2CCN(C(=O)C(=O)Nc3nc(C)cs3)CC2)c(=O)n2nc(C3=CCOCC3)nc2n1CC(=O)Nc1ccc(C(F)(F)F)cc1F [Example 350, 2-(4-(2-(3,6-Dihydro-2H-pyran-4-yl)-5-ethyl-4-(2-((2-fluoro-4-(trifluoromethyl)phenyl)amino)-2-oxoethyl)-7-oxo-4,7-dihydro-[1,2,4]triazolo[1,5-a]pyrimidin-6-yl)piperazin-1-yl)-N-(4-methylthiazol-2-yl)-2-oxoacetamide]
< 100 | < 100 | CCc1c(N2CCN(C(=O)C(=O)Nc3nnc(Cl)s3)CC2)c(=O)n2nc(C3=CCOCC3)nc2n1CC(=O)Nc1ccc(C(F)(F)F)cc1Cl [Example 351, N-(5-Chloro-1,3,4-thiadiazol-2-yl)-2-(4-(4-(2-((2-chloro-4-(trifluoromethyl)phenyl)amino)-2-oxoethyl)-2-(3,6-dihydro-2H-pyran-4-yl)-5-ethyl-7-oxo-4,7-dihydro-[1,2,4]triazolo[1,5-a]pyrimidin-6-yl)piperazin-1-yl)-2-oxoacetamide]
